Results on ten compounds are retold here after patent publication US20210070747A1, “2(1H)-QUINOLINONE DERIVATIVE” (priority 2017, published 2021).

Test [1] concerns N. gonorrhoeae ATCC 49226. In words: Test for evaluating antibacterial activity (N. gonorrhoeae), broth microdilution MIC. It is filed as cell-based. The following applies: Neisseria gonorrhoeae, ATCC49226; 35° C., 24 hours, gonococcal broth. In outline:
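Broth microdilution in gonococcal broth with 1% supplement C, inoculum from overnight chocolate II agar culture at McFarland 0.5 diluted 5-fold.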

A further test concerns the target T1, E. coli DNA gyrase (Escherichia coli, UniProt P0AES6).
T1 construct: made in house; host or cells: E. coli BL21 (DE3)
In words: Test for evaluating the activity of inhibiting E. coli DNA gyrase enzyme (Method 1, supercoiling, Inspiralis enzyme). In kind it is biochemical. As to the method: Test Example 1-1 Test for Evaluating the Activity of Inhibiting E. coli DNA Gyrase Enzyme (Method 1)
The enzymatic activity of E. coli DNA gyrase was measured by a method comprising reacting DNA gyrase and its substrate, relaxed pBR322 (Inspiralis), in the presence of ATP and detecting the post-reaction supercoiled pBR322/relaxed pBR322 ratio with H19 (Profoldin).
Specifically, to 1 ng/μL of relaxed pBR322, E. coli DNA gyrase enzyme (Inspiralis) was added at a final concentration of 0.006 U/μL and the mixture was incubated for 60 minutes at room temperature. This reaction was carried out in 20 mmol/L tris-HCl buffered solution (pH 8.0) comprising 0.5 mmol/L ATP, 0.005% bridge 35, 35 mmol/L ammonium acetate, 8 mmol/L magnesium chloride, 4.6% glycerol, and 1 mmol/L dithiothreitol. To the reaction mixture, H19 was added to bring the reaction to an end; thereafter, the supercoiled pBR322/relaxed pBR322 ratio was detected at excitation wavelength/emission wavelength=485 nm/535 nm. An inhibition curve was obtained by allowing the analyte compound to be present at varying concentrations during the reaction described above. […] The test results of interest are shown in [Table 20-1] and [Table 20-2].

The next test concerns E. Coli ATCC 25922. In words: Test for evaluating antibacterial activity (E. coli), broth microdilution MIC. The settings on record: Escherichia coli, ATCC25922; 35° C., 18 hours, cation-adjusted Mueller-Hinton medium. It is filed as cell-based. In outline:
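Broth microdilution per modified CLSI method in cation-adjusted Mueller-Hinton medium. Inoculum from overnight heart infusion agar growth, McFarland 0.5 suspension diluted 10-fold; incubation 35° C for 18 hours. MIC taken as lowest drug concentration with no visible growth.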

The mark [2] stands for this setting: Method 1, read-out: E. Coli Gyrase supercoiling IC50.

In brackets after ≈: the same amount, converted by molar mass. Structures can show the parent of a compound that is named as a salt. Where two headings read alike, the source gives them in different places.

In general, MIC refers to the smallest concentration in the dilution series that meets the test's criterion for growth inhibition. A word on the IC50: it is the midpoint of a concentration-inhibition curve. As to `CNc1cccc2cc(C(=O)NCCc3cn4cccnc4n3)c(=O)[nH]c12` [Example 29, N-[2-(imidazo [1,2-a]pyrimidine-2-yl)ethyl]-8-(methylamino)-2-oxo-1,2-dihydroquinoline-3-carboxamide], the MIC in test [1] was over 4 µg/mL; against E. Coli ATCC 25922 it was over 64 µg/mL. The IC50 at E. coli DNA gyrase (setting [2]) is 28.2 nM.
On the same counts, the results for `CNc1cc(F)cc2cc(C(=O)Nc3cncnc3)c(=O)[nH]c12` [Example 50, 6-fluoro-8-(methylamino)-2-oxo-N-(pyrimidine-5-yl)-1,2-dihydroquinoline-3-carboxamide] are 0.06 µg/mL (≈ 0.192 µM), over 8 µg/mL and 1.87 nM.
On the same counts, the results for `CNc1cc(F)cc2cc(C(=O)Nc3ccc(C(=O)O)c(OCCN4CCN(C)CC4)c3)c(=O)[nH]c12` [Example 54, 4-{[6-fluoro-8-(methylamino)-2-oxo-1,2-dihydroquinoline-3-carbonyl]amino}-2-[2-(4-methylpiperazine-1-yl)ethoxy] benzoic acid-hydrochloride] are 1 µg/mL, over 16 µg/mL and 1.9 nM.
`CNc1cc(F)cc2cc(C(=O)N(C)c3ccc(C(=O)O)cc3)c(=O)[nH]c12` [Example 56, 4-{[6-fluoro-8-(methylamino)-2-oxo-1,2-dihydroquinoline-3-carbonyl] (melhyl)amino} benzoic acid]: the MIC in test [1] is 0.12 µg/mL (≈ 0.325 µM); against E. Coli ATCC 25922 it was over 64 µg/mL. Also, the IC50 on E. coli DNA gyrase is 18 nM.
As to `CNc1cc(F)cc2cc(C(=O)Nc3ccc(C(=O)O)c(O)c3)c(=O)[nH]c12` [Example 58, 4-{[6-fluoro-8-(methylamino)-2-oxo-1,2-dihydroquinoline-3-carbonyl]amino}-2-hydroxybenzoic acid], the figures for the MIC (in test [1]; with E. Coli ATCC 25922) were 0.12 µg/mL (≈ 0.323 µM) and over 32 µg/mL, respectively. The IC50 at E. coli DNA gyrase (setting [2]) was determined as 2.05 nM.
On to `CNc1cc(F)cc2cc(C(=O)Nc3ccc(C(=O)O)c(OCCCN)c3)c(=O)[nH]c12.O=CO` [Example 62, 2-(3-Aminopropoxy)-4-[[6-fluoro-8-(methylamino)-2-oxo-1,2-dihydroquinoline-3-carbonyl]amino]benzoic acid-formate], for which the MIC in test [1] is 2 µg/mL; with E. Coli ATCC 25922 it was over 16 µg/mL. Besides, at E. coli DNA gyrase, half-maximal inhibition (IC50) required 0.92 nM.
On to `CNc1cc(F)cc2cc(C(=O)NCCc3cccc(C(=O)O)c3)c(=O)[nH]c12` [Example 66, 3-(2-{[6-fluoro-8-(methylamino)-2-oxo-1,2-dihydroquinoline-3-carbonyl]amino}ethyl) benzoic acid], for which the figures for the MIC (in test [1]; in the test with E. Coli ATCC 25922) were 0.25 µg/mL (≈ 0.652 µM) and over 32 µg/mL, respectively. Besides, the IC50 at E. coli DNA gyrase (setting [2]) was found to be 0.95 nM.
The matching figures for `CNc1cc(F)cc2cc(C(=O)Nc3cccnc3)c(=O)[nH]c12` [Example 72, 6-fluoro-8-(methylamino)-2-oxo-N-(pyridine-3-yl)-1,2-dihydroquinoline-3-carboxamide]: 0.12 µg/mL (≈ 0.384 µM), over 4 µg/mL and 8.03 nM.
The matching figures for `CNc1cc(F)cc2cc(C(=O)Nc3ccccc3)c(=O)[nH]c12` [Example 76, 6-fluoro-8-(methylamino)-2-oxo-N-phenyl-1,2-dihydroquinoline-3-carboxamide]: 0.25 µg/mL (≈ 0.803 µM), over 32 µg/mL and 249 nM.
On the same counts, the results for `CNc1cc(F)cc2cc(C(=O)OCc3ccncc3N)c(=O)[nH]c12` [Example 77, (3-aminopyridine-4-yl)methyl 6-fluoro-8-(methylamino)-2-oxo-1,2-dihydroquinoline-3-carboxylate] are 1 µg/mL (≈ 2.92 µM), over 16 µg/mL and 24.3 nM.
